Test results published in patent publication US8852634B2, “Dosage formulation” (Hoffmann-La Roche Inc., priority 2005, dated 2014).
Where two headings read alike, the source gives them in different places.

Assay: Solubility of the crystalline compounds in aqueous media
Assay type: physicochemical

solubility (aqueous buffer solutions of pH 3.0-7.0, read-out: solubility in aqueous buffer solutions): < 0.1 µg/mL
solubility (water, 'above noted insolubilities', read-out: solubility in water): < 0.1 µg/mL
Compound: Cc1ccccc1-c1cc(N2CCOCC2)ncc1N(C)C(=O)C(C)(C)c1cc(C(F)(F)F)cc(C(F)(F)F)c1 [2-(3,5-bis-trifluoromethyl-phenyl)-N-methyl-N-(6-morpholin-4-yl-4-o-tolyl-pyridin-3-yl)-isobutyramide]
